Patent US20070037752A1, “Novel alanyl-amino peptidase inhibitors for functionally influencing different cells and treating immunological, inflammatory, neuronal, and other diseases” (priority 2003, published 2007)

Molecular target: alanyl aminopeptidases (APN) (Homo sapiens, UniProt P15144)
Test: Inhibition of alanyl aminopeptidase enzymatic activity, fluorogenic substrate (Ala)2-rhodamine 110
Assay type: biochemical
Settings: Table 1, unstarred values; read-out: IC50APN
Protocol: The inhibition characteristics measured are referred to as IC-50 values or ID50 values (the latter marked with “*”) for said enzyme. The enzymatic activity was determined by means of the fluorogenic substrate/product (Ala)2-rhodamine 110.

Chain of alanyl aminopeptidases (APN) (P15144 whole entry, species assumed): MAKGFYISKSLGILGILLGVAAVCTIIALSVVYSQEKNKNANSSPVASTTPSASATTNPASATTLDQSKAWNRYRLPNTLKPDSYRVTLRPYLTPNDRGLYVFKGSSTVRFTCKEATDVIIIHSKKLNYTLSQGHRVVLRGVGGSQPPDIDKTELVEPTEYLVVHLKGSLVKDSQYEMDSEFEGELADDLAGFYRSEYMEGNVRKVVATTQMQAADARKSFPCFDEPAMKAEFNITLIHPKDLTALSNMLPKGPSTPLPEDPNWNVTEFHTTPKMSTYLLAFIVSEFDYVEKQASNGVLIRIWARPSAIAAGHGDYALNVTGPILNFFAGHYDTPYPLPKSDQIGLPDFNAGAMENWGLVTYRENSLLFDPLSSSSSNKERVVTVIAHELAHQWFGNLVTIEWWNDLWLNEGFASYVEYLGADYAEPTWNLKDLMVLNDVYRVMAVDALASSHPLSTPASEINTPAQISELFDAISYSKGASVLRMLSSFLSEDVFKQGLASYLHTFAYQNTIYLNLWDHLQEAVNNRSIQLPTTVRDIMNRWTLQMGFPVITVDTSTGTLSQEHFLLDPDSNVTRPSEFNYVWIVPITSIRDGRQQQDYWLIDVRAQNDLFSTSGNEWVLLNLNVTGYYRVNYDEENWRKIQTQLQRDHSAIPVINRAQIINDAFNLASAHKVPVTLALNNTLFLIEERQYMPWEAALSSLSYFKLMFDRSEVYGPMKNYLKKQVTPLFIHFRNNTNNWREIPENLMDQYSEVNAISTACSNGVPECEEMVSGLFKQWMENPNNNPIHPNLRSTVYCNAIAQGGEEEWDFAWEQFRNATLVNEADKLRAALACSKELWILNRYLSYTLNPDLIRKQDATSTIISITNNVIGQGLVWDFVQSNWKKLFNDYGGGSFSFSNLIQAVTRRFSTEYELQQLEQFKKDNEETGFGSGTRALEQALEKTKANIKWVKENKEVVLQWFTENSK

SMILES | IC50
O=C(CCOC(c1ccccc1)c1ccc(Cl)cc1)NO (centres unmarked) [A1.005] | 7.3 µM

Same assay, conditions: Table 3, starred values = ID50; read-out: ID50 APN (values marked with *)

SMILES | IC50
COc1cc(C(=O)NCC(=O)N/N=C\c2ccc(C)o2)cc(OC)c1OC [A3.335] | 161 µM
O=C(CN1C(=O)C2C3C=CC(C3)C2C1=O)Nc1ccc(C(F)(F)F)cc1 (centres unmarked) [A3.337] | 223 µM
O=C(/C=C/c1ccco1)NCCCN1CCOCC1 [A3.339] | 208 µM

Same assay, conditions: Table 3, unstarred values; read-out: IC50APN

SMILES | IC50
Clc1ccc(-n2cc3c(-c4ccco4)nnc(-c4nc5ccccc5s4)c3n2)cc1 [A3.065] | 14.3 µM
CCCCCC(=O)N/N=C/c1ccco1 [A3.164] | 26.7 µM
CCN(CC)c1ccc(/C=N/NC(=O)CNC(=O)/C=C/c2ccco2)cc1 [A3.135] | 22.8 µM
O=C1C(Cc2ccc(O)cc2)NC(=S)N1C1CCCCC1 (centres unmarked) [A3.118] | 21.3 µM
Cc1ccc(C(=O)N/C(=C\c2ccco2)C(=O)N2CCOCC2)cc1C [A3.178] | 28.8 µM
COc1cccc(/C=N/NC(=O)c2ccn(C)n2)c1O [A3.328] | 142 µM
O=C(Nc1cccc(/N=C/c2cc(Br)cc(Br)c2O)c1)c1ccco1 [A3.031] | 8.2 µM
COc1ccc(C2NCCS2)cc1OC (centres unmarked) [A3.316] | 92.1 µM
O=C(N/N=C\c1ccco1)c1ccc(Br)cc1 [A3.148] | 24.5 µM
C/C(=N\NC(=O)CNC(=O)/C=C/c1ccco1)c1ccc2ccccc2c1 [A3.050] | 12 µM
CCOC(=O)c1c(N)ncn1-c1ccccc1 [A3.020] | 5.4 µM
CC(=O)C1C(c2ccc(N(C)C)cc2)C2C(=O)N(C3CCCCC3)C(=O)N2C1c1sccc1C (centres unmarked) [A3.294] | 68 µM
COC(=O)c1cc(-c2ccc(/C=C3\C(=O)N(CCCO)C(=O)C(C#N)=C3C)o2)ccc1Cl [A3.069] | 15.2 µM
Cc1ccc(C)n1-c1cccc(C(=O)N/N=C/c2cc(Br)c(O)c(Br)c2)c1 [A3.150] | 24.9 µM
Cc1nc(N)sc1C(=O)N/N=C/c1ccco1 [A3.052] | 12.3 µM
C/C(=N\N=C1\SC(CC(=O)O)C(=O)N1c1ccccc1)c1ccco1 (centres unmarked) [A3.174] | 28.6 µM
CCOC(=O)C1CCN(C(=O)/C(=C/c2ccco2)NC(=O)c2ccc(C)c(C)c2)CC1 [A3.209] | 34.5 µM
Cc1ccc(/C=N/NC(=O)c2cccc(Cl)c2)o1 [A3.039] | 10.5 µM
CCOC(=O)N1CCc2c(sc(NC(=O)c3ccc(F)cc3)c2C(=O)Nc2ccc(Br)cc2)C1 [A3.026] | 7.3 µM
O=C(N/N=C/c1ccco1)c1ccccc1O [A3.075] | 16 µM
CCOC(=O)C(NC(=O)c1ccc(OC)cc1)(N1CCCC1=O)C(F)(F)F (centres unmarked) [A3.257] | 48.7 µM

Same assay, conditions: Table 4, starred values = ID50; read-out: ID50 APN (values marked with *)

SMILES | IC50
O=C(Cc1ccccc1)NCC(=O)N/N=C/c1ccco1 [A4.161] | 73.1 µM
COc1ccc(C(=O)N/N=C\c2cc(Br)c(O)c(O)c2Br)cc1 [A4.124] | 39.7 µM
COc1ccc(OCC(=O)N/N=C/c2c(Br)cc(Br)c(O)c2Br)cc1 [A4.164] | 76.4 µM
Cn1c(=O)c2c(ncn2CC(=O)N/N=C/C=C\c2ccco2)n(C)c1=O [A4.166] | 79.8 µM

Same assay, conditions: Table 4, unstarred values; read-out: IC50APN

SMILES | IC50
Cc1ccc(/C=N/NC(=O)c2ccccc2OCc2ccccc2)o1 [A4.045] | 18.4 µM
Cc1ccc(/C=N/NC(=O)COc2cccc(Cl)c2)o1 [A4.153] | 62.7 µM
Cc1c(Cl)cccc1NC(=O)CCC(=O)N/N=C/c1ccco1 [A4.119] | 36.6 µM
Cc1ccc(/C=N/NC(=O)c2cccc(Cl)c2)o1 [A4.015] | 10.5 µM
O=C(CCc1ccccc1)N/N=C/c1ccco1 [A4.162] | 74.7 µM
O=C(Cc1cccs1)N/N=C/C=C\c1ccco1 [A4.090] | 28 µM
CC(/C=N/NC(=O)C(O)c1ccccc1)=C\c1ccco1 (centres unmarked) [A4.118] | 36.3 µM
O=C(Cc1ccc(Br)c2ccccc12)N/N=C/c1ccc([N+](=O)[O-])c(O)c1 [A4.009] | 7 µM
O=C(N/N=C/c1ccco1)c1ccc(=O)[nH]n1 [A4.063] | 22.4 µM
O=C(CNC(=O)C(c1ccccc1)c1ccccc1)N/N=C/c1ccco1 [A4.034] | 15.6 µM
O=C(N/N=C/c1cc(Br)ccc1OC(=O)c1ccc([N+](=O)[O-])cc1)/C(=C\c1ccc2c(c1)OCO2)NC(=O)c1ccccc1 [A4.146] | 54.2 µM
CCCCCCCC(=O)N/N=C/c1ccco1 [A4.143] | 50.3 µM
O=C(N/N=C/c1ccco1)c1ccccc1O [A4.037] | 16 µM
O=C(N/N=C/c1ccco1)c1cccc(Br)c1 [A4.152] | 62.7 µM

Same assay, conditions: Table 5, unstarred values; read-out: IC50APN

SMILES | IC50
CC1(C)CC(CC/N=C/c2ccccc2)(Cc2ccccc2)CCO1 (centres unmarked) [A5.006] | 93.6 µM

Same assay, conditions: Table 8, starred values = ID50; read-out: ID50 APN (values marked with *)

SMILES | IC50
COc1ccc(C2C(C(=O)c3ccccc3)C(c3ccccc3)C(C(=O)NCc3ccc(F)cc3)N2C(=O)NC2CCCCC2)cc1 (centres unmarked) [A8.041] | 231 µM

Same assay, conditions: Table 8, unstarred values; read-out: IC50APN

SMILES | IC50
CC1SC(N/N=C/c2ccco2)=NC1=O (centres unmarked) [A8.006] | 8 µM
O=C1C(Cc2c[nH]c3ccccc23)NC(=S)N1c1ccccc1 (centres unmarked) [A8.009] | 12.4 µM

Same assay, conditions: Table 9, starred values = ID50; read-out: ID50 APN (values marked with *)

SMILES | IC50
CC1=C(C#N)C(=O)N(CCO)C(=O)/C1=C\c1ccc(-c2cc(Cl)ccc2Cl)o1 [A9.002] | 1.2 µM
O=c1cc(CSc2nnc(-c3ccco3)c(-c3ccco3)n2)c2ccccc2[nH]1 [A9.107] | 65.1 µM

Same assay, conditions: Table 9, unstarred values; read-out: IC50APN

SMILES | IC50
CC(C)COc1ccc(C(=O)N/C(=C\c2ccco2)C(=O)N2CCOCC2)cc1 [A9.027] | 13.1 µM
CCc1c(C)nc2ccccc2c1SCC(=O)O [A9.112] | 77.4 µM
CCOC(=O)C1=C2SCC(=O)N2C(N)=C(C#N)C1 [A9.061] | 23.1 µM
Cc1ccc(C(=O)N/C(=C\c2ccco2)C(=O)N2CCSCC2)cc1C [A9.109] | 68.9 µM
NCCCNC(=O)C1Cc2ncn(Cc3ccccc3[N+](=O)[O-])c2CN1Cc1ccccn1 (centres unmarked) [A9.123] | 138 µM
Cc1ccc(/C=N/NC(=O)c2nnn(-c3nonc3N)c2CN2CCOCC2)o1 [A9.067] | 26.7 µM
N/C(=N/OS(=O)(=O)c1ccc(C(F)(F)F)cc1)C1CSCCS1 (centres unmarked) [A9.031] | 13.4 µM
Cc1ccccc1C(=O)N1CCC(C(=O)Nc2ccc(OCc3ccccc3)cc2)CC1 [A9.102] | 54 µM

Same assay, conditions: Table 10; read-out: IC50APN

SMILES | IC50
Cc1ccc(C(=O)N/C(=C\c2ccco2)C(=O)N2CC3CC(C2)c2cccc(=O)n2C3)cc1C (centres unmarked) [A10.006] | 11.8 µM

Same assay, conditions: Table 11; read-out: IC50APN

SMILES | IC50
CC(=O)Oc1ccc([N+](=O)[O-])cc1/C=N/NC(=O)COc1cc(C)ccc1C(C)C [A11.014] | 20.3 µM
O=C1CNC(c2cccc([N+](=O)[O-])c2)N1O (centres unmarked) [A11.018] | 26.4 µM
Cc1ccc(C)c(NC(=O)C(=O)N/N=C/c2cc([N+](=O)[O-])ccc2O)c1 [A11.006] | 10.8 µM

Same assay, conditions: Table 12; read-out: IC50APN

SMILES | IC50
O=C(N/C(=C\c1ccco1)C(=O)N1CCCC(CO)C1)c1ccccc1 (centres unmarked) [A12.035] | 19 µM
O=C(COc1ccc(Br)cc1)NO [A12.009] | 6.4 µM
COc1ccc(C[C@@H](N)C(=O)N[C@H]2[C@H](O)[C@H](n3cnc4c(N(C)C)ncnc43)O[C@@H]2CO)cc1 [A12.037] | 20.9 µM
O=C(CCOC(c1ccc(F)cc1)c1ccc(F)cc1)NO [A12.041] | 21.8 µM
CC(C)C1N=C(Cc2cccnc2)N(CCCN2CCCC2=O)C1C(=O)NCc1ccccc1 (centres unmarked) [A12.055] | 34 µM

Same assay, conditions: Table 13; read-out: IC50APN

SMILES | IC50
CC1=C(C#N)C(=O)N(CC(C)O)C(=O)/C1=C/c1ccc(-c2ccc(Br)cc2)o1 (centres unmarked) [A13.021] | 47.2 µM
CCOC(=O)c1cc(-c2ccc(/C=C3\C(=O)N(CCCO)C(=O)C(C#N)=C3C)o2)ccc1Cl [A13.020] | 41 µM
COC(=O)c1cc(-c2ccc(/C=C3\C(=O)N(CCCO)C(=O)C(C#N)=C3C)o2)ccc1Cl [A13.006] | 15.2 µM
CC1=C(C#N)C(=O)N(CCO)C(=O)/C1=C\c1ccc(-c2cc(Cl)ccc2Cl)o1 [A13.001] | 1.2 µM

Same assay, conditions: Table 14; read-out: IC50APN

SMILES | IC50
COC(=O)C1=C(N)N2C(=O)CSC2=C(C(=O)OC(C)C)C1 [A14.002] | 5.9 µM
